Laboratory results reported in patent publication US9127038B2, “Kisspeptide-pentasaccharide conjugates” (Merck Sharp & Dohme Corp., priority 2011, dated 2015).
Where two headings read alike, the source gives them in different places.

Assays:
[1] = target: T1, human KISS-receptor (Homo sapiens, UniProt Q969F8); experiment: NFAT-regulated luciferase reporter gene assay in CHO-k1 cells, agonist activity; type: cell-based
T1 construct: expressed in transfected cells; host or cells: CHO-k1 cells that also express mitochondrially targeted aequorin, Gα16 and an NFAT-luciferase reporter
Experimental: CHO-k1 cells were used that expressed the mitochondrially targeted aequorine and Gα16 (from Euroscreen, Brussels, Belgium), a Nuclear Factor of Activated T-cells-responsive element (NFAT) under the control of a promoter directing the expression of a firefly luciferase reporter gene (pNFAT-TALuc obtained from Clontech, Mountain View, Calif.), and the human GPR54-R Hygro(+)-hGPR54WT c4; MSD). These cells were cultured in Dulbecco's Modified Eagle Medium: Nutrient Mixture F-12 (DMEM/F12) (Invitrogen, Carlsbad, Calif.), supplemented with 10% (vol/vol) filtered bovine serum (Hyclone, Thermo Fisher Scientific, Waltham, Mass.), 100 U/ml penicillin G, 100 μg/ml streptomycin, 400 μg/ml Geneticin and 400 μg/ml Hygromycin (Invitrogen). […] Kisspeptin-10 was used as a standard. […] When the conjugates were tested in the presence of a final percentage of 20% human serum, 10 μl assay medium containing 60% human serum (Sigma-Aldrich, #H4522) was added to the wells. In the absence of human serum, 10 μl of assay medium was added. Cells were harvested and diluted to a concentration of 7.5E5 cells/ml in assay medium without 0.1% BSA. 10 μl of cell solution was added to the compound wells. After incubation for 4 hours in a humidified atmosphere at 5% CO2 and 37° C., the plate was left at room temperature for 30 minutes. Subsequently, 15 μl of Steadylite™ solution (PerkinElmer, Boston, Mass.) was added and the cells, protected from light, were allowed to lyse for 30 min at room temperature. Luminescence, indicated as relative luminescence units (RLU), was measured on an Envision Multilabel reader (PerkinElmer).

[2] = In vitro stability in human serum (LC/MS/MS); conditions: human
Experimental: Test compound is added to 1.5 mL human serum in a 96-wells deepwell plate in a final concentration of 750 nM. The compound is mixed and immediately thereafter a 100 μl sample is harvested in a 96-wells 2D-tuberack (T=0 sample). The 2 D-tubes are closed with rubber tube caps and the sample plate is stored at −20° CF. in the freezer. The deepwell plate is put into an incubator which was set at humidified (95%) atmosphere at 5-7% CO2 and 37° C. for an incubation period of maximum 240 h. During this incubation period, samples of 100 μl are collected on various time intervals, dependent on the test compound used; time points 0, 1, 2, 3, 6, 24, 48, 72 h in case of Kisspeptides and 0, 3, 6, 24, 48, 72, 168, 240 h in case of kisspeptide-pentasaccharide conjugates. Sample plates are put on ice in case of sampling and stored at −20° C. until analysis by LC/MS/MS.
For LC-MS/MS analysis, the compounds are separated over an XTerra RP8 column and using a gradient mobile phase of ammonium acetate buffer and acetonitrile at a fixed column temperature. MS/MS detection is done with a triple quadrupole mass spectrometer and employing negative ion electrospray ionization. The mass spectrometer is set up to achieve a known degree of in source fragmentation, where the initially formed multiply charged negative ions lose one or more SO3 molecules. The most abundant of these secondary ions are then subjected to a common MS/MS experiment in which a single SO3 loss is monitored. The Q1 and Q3 mass filter settings for this MS/MS experiment have commonly been determined in method development. […] Internal standardization is accomplished by adding a different conjugate of approximately the same size to the bioanalytical samples.
The rate of compound loss is expressed as a half-life (plasma t^1/2). The t^1/2 for the test compound can be determined by plotting the natural logarithm (In) of the measured concentrations against time and fitting the line through all data points. The gradient of this line is the first order rate constant (k) for substrate disappearance and is determined by regression analysis. The rate constant is converted to a half-life according to the following equation: In vitro half-life(t^1/2)=−ln 2/k

[3] = absence of human serum, read-out: pEC50 (converted)
[4] = presence of 20% human serum, read-out: pEC50 serum (converted)

T1 sequence (Q969F8 whole entry): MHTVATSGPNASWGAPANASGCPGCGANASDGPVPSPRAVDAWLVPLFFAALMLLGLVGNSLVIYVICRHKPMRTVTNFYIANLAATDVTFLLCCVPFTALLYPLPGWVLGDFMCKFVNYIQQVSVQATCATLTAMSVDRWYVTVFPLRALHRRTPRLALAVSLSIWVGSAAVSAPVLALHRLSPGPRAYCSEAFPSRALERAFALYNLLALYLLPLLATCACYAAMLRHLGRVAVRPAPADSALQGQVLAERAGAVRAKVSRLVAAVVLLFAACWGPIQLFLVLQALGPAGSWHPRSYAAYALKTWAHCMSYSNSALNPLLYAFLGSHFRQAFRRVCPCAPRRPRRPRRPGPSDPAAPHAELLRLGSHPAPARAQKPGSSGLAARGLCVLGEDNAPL

Row | SMILES | EC50 [1, 3] [nM] | EC50 [1, 4] [nM] | potency (in words) ([1]; in words) | EC50 ([1]; pEC50, absence of human serum) [nM] | EC50 ([1]; pEC50 serum, presence of 20% human serum) [nM] | half-life at 750 nM [2] [h]
1 | CNC(=N)NCCC[C@H](NC(=O)[C@H](CC(C)C)NC(=O)NNC(=O)[C@H](Cc1ccccc1)NC(=O)[C@@H](NC(=O)[C@H](CC(N)=O)NC(=O)[C@H](Cc1c[nH]c2ccccc12)NC(=O)[C@H](CC(N)=O)NC(=O)[C@@H](Cc1ccc(O)cc1)NC(=O)CCCCn1cc(CCC(=O)NCCOCCOCCOCCO[C@H]2[C@H](OC)[C@@H](OC)[C@@H](O[C@H]3[C@H](OC)[C@@H](OC)[C@H](O[C@H]4[C@H](OS(=O)(=O)O)[C@@H](OS(=O)(=O)O)[C@@H](O[C@H]5[C@H](OC)[C@@H](OC)[C@H](O[C@H]6[C@H](OC)[C@@H](OS(=O)(=O)O)[C@@H](OC)O[C@@H]6COS(=O)(=O)O)O[C@H]5C(=O)O)O[C@@H]4COS(=O)(=O)O)O[C@@H]3C(=O)O)O[C@@H]2COS(=O)(=O)O)nn1)[C@@H](C)O)C(=O)N[C@@H](Cc1ccccc1)C(N)=O [Conjugate C7] | – | – | – | 0.158 | 0.501 | 171
2 | CNC(=N)NCCC[C@H](NC(=O)[C@H](CC(C)C)NC(=O)CNC(=O)[C@H](Cc1ccccc1)NC(=O)[C@@H](NC(=O)[C@H](CC(N)=O)NC(=O)[C@@H]1C[C@@H](O)CN1C(=O)[C@H](CC(N)=O)NC(=O)[C@H](Cc1ccc(O)cc1)NC(=O)CCOCCOCCOCCOCCn1cc(CCC(=O)NCCOCCOCCOCCO[C@H]2[C@H](OC)[C@@H](OC)[C@@H](O[C@H]3[C@H](OC)[C@@H](OC)[C@H](O[C@H]4[C@H](OS(=O)(=O)O)[C@@H](OS(=O)(=O)O)[C@@H](O[C@H]5[C@H](OC)[C@@H](OC)[C@H](O[C@H]6[C@H](OS(=O)(=O)O)[C@@H](OS(=O)(=O)O)[C@@H](OC)O[C@@H]6COS(=O)(=O)O)O[C@H]5C(=O)O)O[C@@H]4COS(=O)(=O)O)O[C@@H]3C(=O)O)O[C@@H]2COS(=O)(=O)O)nn1)[C@@H](C)O)C(=O)N[C@@H](Cc1ccccc1)C(N)=O [Conjugate C26] | – | – | – | – | – | > 240
3 | CNC(=N)NCCC[C@H](NC(=O)[C@H](CC(C)C)NC(=O)NNC(=O)[C@H](Cc1ccccc1)NC(=O)[C@@H](NC(=O)[C@H](CC(N)=O)NC(=O)[C@@H]1C[C@@H](O)CN1C(=O)[C@@H](Cc1ccc(O)cc1)NC(=O)CCCCn1cc(CCC(=O)NCCOCCOCCOCCO[C@H]2[C@H](OC)[C@@H](OC)[C@@H](O[C@H]3[C@H](OC)[C@@H](OC)[C@H](O[C@H]4[C@H](OS(=O)(=O)O)[C@@H](OS(=O)(=O)O)[C@@H](O[C@H]5[C@H](OC)[C@@H](OC)[C@H](O[C@H]6[C@H](OS(=O)(=O)O)[C@@H](OS(=O)(=O)O)[C@@H](OC)O[C@@H]6COS(=O)(=O)O)O[C@H]5C(=O)O)O[C@@H]4COS(=O)(=O)O)O[C@@H]3C(=O)O)O[C@@H]2COS(=O)(=O)O)nn1)[C@@H](C)O)C(=O)N[C@@H](Cc1c[nH]c2ccccc12)C(N)=O [Conjugate C31] | – | – | – | – | – | > 240
4 | CNC(=N)NCCC[C@H](NC(=O)[C@H](CC(C)C)NC(=O)NNC(=O)[C@H](Cc1ccccc1)NC(=O)[C@@H](NC(=O)[C@H](CC(N)=O)NC(=O)[C@@H]1C[C@@H](O)CN1C(=O)[C@@H](Cc1ccc(O)cc1)NC(=O)CCOCCOCCOCCOCCn1cc(CCC(=O)NCCOCCOCCOCCO[C@H]2[C@H](OC)[C@@H](OC)[C@@H](O[C@H]3[C@H](OC)[C@@H](OC)[C@H](O[C@H]4[C@H](OS(=O)(=O)O)[C@@H](OS(=O)(=O)O)[C@@H](O[C@H]5[C@H](OC)[C@@H](OC)[C@H](O[C@H]6[C@H](OC)[C@@H](OS(=O)(=O)O)[C@@H](OC)O[C@@H]6COS(=O)(=O)O)O[C@H]5C(=O)O)O[C@@H]4COS(=O)(=O)O)O[C@@H]3C(=O)O)O[C@@H]2COS(=O)(=O)O)nn1)[C@@H](C)O)C(=O)N[C@@H](Cc1c[nH]c2ccccc12)C(N)=O [Conjugate C34] | 0.0407 | 0.141 | – | – | – | 138

Second part, led by results:

Row | EC50 [1, 3] [nM] | EC50 [1, 4] [nM] | potency (in words) ([1]; in words) | SMILES | EC50 ([1]; pEC50, absence of human serum) [nM] | EC50 ([1]; pEC50 serum, presence of 20% human serum) [nM] | half-life at 750 nM [2] [h]
5 | 0.123 | 0.525 | – | CNC(=N)NCCC[C@H](NC(=O)[C@H](CC(C)C)NC(=O)NNC(=O)[C@H](Cc1ccccc1)NC(=O)[C@@H](NC(=O)[C@H](CC(N)=O)NC(=O)[C@H](Cc1c[nH]c2ccccc12)NC(=O)[C@H](CC(N)=O)NC(=O)[C@@H](Cc1ccc(O)cc1)NC(=O)CCOCCOCCOCCOCCn1cc(CCC(=O)NCCOCCOCCOCCO[C@H]2[C@H](OC)[C@@H](OC)[C@@H](O[C@H]3[C@H](OC)[C@@H](OC)[C@H](O[C@H]4[C@H](OS(=O)(=O)O)[C@@H](OS(=O)(=O)O)[C@@H](O[C@H]5[C@H](OC)[C@@H](OC)[C@H](O[C@H]6[C@H](OC)[C@@H](OS(=O)(=O)O)[C@@H](OC)O[C@@H]6COS(=O)(=O)O)O[C@H]5C(=O)O)O[C@@H]4COS(=O)(=O)O)O[C@@H]3C(=O)O)O[C@@H]2COS(=O)(=O)O)nn1)[C@@H](C)O)C(=O)N[C@@H](Cc1ccccc1)C(N)=O [Conjugate C10] | – | – | 121
6 | 0.372 | 1.02 | – | CNC(=N)NCCC[C@H](NC(=O)[C@H](CC(C)C)NC(=O)CNC(=O)[C@H](Cc1ccccc1)NC(=O)[C@@H](NC(=O)[C@H](CC(N)=O)NC(=O)[C@@H]1C[C@@H](O)CN1C(=O)[C@H](CC(N)=O)NC(=O)[C@H](Cc1ccc(O)cc1)NC(=O)CCOCCOCCOCCOCCn1cc(CCC(=O)NCCOCCOCCOCCO[C@H]2[C@H](OC)[C@@H](OC)[C@@H](O[C@H]3[C@H](OC)[C@@H](OC)[C@H](O[C@H]4[C@H](OS(=O)(=O)O)[C@@H](OS(=O)(=O)O)[C@@H](O[C@H]5[C@H](OC)[C@@H](OC)[C@H](O[C@H]6[C@H](OC)[C@@H](OS(=O)(=O)O)[C@@H](OC)O[C@@H]6COS(=O)(=O)O)O[C@H]5C(=O)O)O[C@@H]4COS(=O)(=O)O)O[C@@H]3C(=O)O)O[C@@H]2COS(=O)(=O)O)nn1)[C@@H](C)O)C(=O)N[C@@H](Cc1ccccc1)C(N)=O [Conjugate C25] | – | – | 188
7 | 0.0427 | 1.38 | – | CNC(=N)NCCC[C@H](NC(=O)[C@H](CC(C)C)NC(=O)NNC(=O)[C@H](Cc1ccccc1)NC(=O)[C@@H](NC(=O)[C@H](CC(N)=O)NC(=O)[C@@H]1C[C@@H](O)CN1C(=O)[C@@H](Cc1ccc(O)cc1)NC(=O)CCOCCOCCOCCOCCn1cc(CCC(=O)NCCOCCOCCOCCO[C@H]2[C@H](OC)[C@@H](OC)[C@@H](O[C@H]3[C@H](OC)[C@@H](OC)[C@H](O[C@H]4[C@H](OS(=O)(=O)O)[C@@H](OS(=O)(=O)O)[C@@H](O[C@H]5[C@H](OC)[C@@H](OC)[C@H](O[C@H]6[C@H](OS(=O)(=O)O)[C@@H](OS(=O)(=O)O)[C@@H](OC)O[C@@H]6COS(=O)(=O)O)O[C@H]5C(=O)O)O[C@@H]4COS(=O)(=O)O)O[C@@H]3C(=O)O)O[C@@H]2COS(=O)(=O)O)nn1)[C@@H](C)O)C(=O)N[C@@H](Cc1c[nH]c2ccccc12)C(N)=O [Conjugate C35] | – | – | > 240
8 | 1.58 | 31.6 | not sufficiently potent | CO[C@H]1O[C@H](COS(=O)(=O)O)[C@@H](O[C@@H]2O[C@@H](C(=O)O)[C@@H](O[C@H]3O[C@H](COS(=O)(=O)O)[C@@H](O[C@@H]4O[C@H](C(=O)O)[C@@H](O[C@H]5O[C@H](COS(=O)(=O)O)[C@@H](OCCOCCOCCOCCNC(=O)CCc6cn(CCCCC(=O)N[C@@H](Cc7ccc(O)cc7)C(=O)N[C@@H](CC(N)=O)C(=O)N[C@@H](Cc7c[nH]c8ccccc78)C(=O)N[C@@H](CC(N)=O)C(=O)N[C@@H](CO)C(=O)N[C@@H](Cc7ccccc7)C(=O)NCC(=O)N[C@@H](CC(C)C)C(=O)N[C@@H](CCCNC(=N)N)C(=O)N[C@@H](Cc7ccccc7)C(N)=O)nn6)[C@H](OC)[C@H]5OC)[C@H](OC)[C@H]4OC)[C@H](OS(=O)(=O)O)[C@H]3OS(=O)(=O)O)[C@H](OC)[C@H]2OC)[C@H](OS(=O)(=O)O)[C@H]1OS(=O)(=O)O [Conjugate C42, reference compound] | – | – | 121
